Measurements taken from patent US20170304388A1, “NEW INDICATION OF CARDIOVASCULAR DRUGS FOR PREPARATION OF CANCER INHIBITION PHARMACEUTICAL COMPOSITION” (LAUNX BIOMEDICAL CO., LTD., priority 2014, published 2017).

How the values were obtained:
Format in all cases: cell-based
[1] = test system: MKN-45 (Gastric Adenocarcinoma); experiment: Cell viability analysis (WST-1), MKN-45; conditions: Table 4, repeated experiments, drug 10 μM
[2] = test system: A549 (Lung Adenocarcinoma); experiment: Cell viability analysis (WST-1), A549; conditions: Table 4, repeated experiments, drug 10 μM
[3] = test system: PC3 (Prostate Adenocarcinoma); experiment: Cell viability analysis (WST-1), PC3; conditions: Table 4, repeated experiments, drug 10 μM
MDA-MB231 = experiment: Cell viability analysis (WST-1), MDA-MB231; conditions: Table 4, repeated experiments, drug 10 μM
C-33A = experiment: Cell viability analysis (WST-1), C-33A; conditions: Table 4, repeated experiments, drug 10 μM
Description: (§1) Subculture the different types of cancer cells. The cancer cells includes lung cancer, gastric cancer, hepatic cancer, colon cancer, skin cancer, cervical cancer, prostate cancer, bladder cancer, breast cancer, leukemia, pancreatic cancer, ovarian cancer, tongue cancer, osteosarcoma, and renal cancer. The cell numbers were counted and reseed as 2×10^6 in cell culture plate/flask. Then, the culture medium for culturing the cell lines was added to a volume of 10 ml, and the cells were cultured for 2-3 days. Then, the cells were suspended for loading into 96-well plates. The cell number was 3000 cells and the volume of the culture medium was 100 ul each well.
(§2) Removing the original culture medium from 96-well plate. Then add 100 μl of commercially drug at a concentration of 10 μM per well. After 72 hours, add the diluted WST-1 reagent to the well with 100 μl/well, and the diluted WST-1 reagent was acquired from the dilution of 9:1 medium and WST-1 stock reagent. Finally, the total volume of each well are 200 μl/well. Culture the 96-well plate at 37° C. for 30 to 90 minutes. Detecting and calculating the survival rate of each cancer cells with an ELISA reader at OD450 nm. The lower viability of cancer cells represents better inhibition effect via the drugs. Otherwise, the higher viability of cancer cells represents worse inhibition effect via the drugs.
(§3) According to the above mentioned cardiovascular drugs for cancer growth inhibition in Table 3, the inventors took the repeat experiments for the cardiovascular drugs to check the growth inhibitory effects of cancer cells by the cardiovascular drugs. […] 4.

[4] = test system: HCT116 (Colorectal Carcinoma); experiment: Cell viability analysis (WST-1), HCT116; conditions: Table 4, repeated experiments, drug 10 μM
T24 = experiment: Cell viability analysis (WST-1), T24; conditions: Table 4, repeated experiments, drug 10 μM
Description: as §1, §2, §3

[5] = test system: H1650 (Lung Adenocarcinoma); experiment: Cell viability analysis (WST-1), H1650; conditions: Table 4, repeated experiments, drug 10 μM
[6] = test system: TSGH-8301 (Urinary Bladder Carcinoma); experiment: Cell viability analysis (WST-1), TSGH-8301; conditions: Table 4, repeated experiments, drug 10 μM
Hep3B = experiment: Cell viability analysis (WST-1), Hep3B; conditions: Table 4, repeated experiments, drug 10 μM
Description: as §1, §2, §3

AsPC-1 = experiment: Cell viability analysis (WST-1), AsPC-1; conditions: Table 4, repeated experiments, drug 10 μM
Procedure, shortened: (§4)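 Wells receive 3000 cells, and the medium is swapped for drug at 10 μM. Seventy-two hours later, WST-1 reagent diluted 9:1 with medium is added, plates sit at 37° C for 30–90 minutes, and OD450 nm yields survival rate.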

[7] = test system: A375 (Amelanotic Melanoma); experiment: Cell viability analysis (WST-1), A375; conditions: Table 4, repeated experiments, drug 10 μM
TOV-21G = experiment: Cell viability analysis (WST-1), TOV-21G; conditions: Table 4, repeated experiments, drug 10 μM
Description: as §1, §2, §3

786-O = experiment: Cell viability analysis (WST-1), 786-O; conditions: Table 4, repeated experiments, drug 10 μM
Description: as §1, §2, §3

[8] = test system: LoVo (Colorectal Adenocarcinoma); experiment: Cell viability analysis (WST-1), LoVo; conditions: Table 4, repeated experiments, drug 10 μM
[9] = test system: AGS (Gastric Adenocarcinoma); experiment: Cell viability analysis (WST-1), AGS; conditions: Table 4, repeated experiments, drug 10 μM
[10] = test system: HeLa (Cervix Adenocarcinoma); experiment: Cell viability analysis (WST-1), HeLa; conditions: Table 4, repeated experiments, drug 10 μM
BxPC-3 = experiment: Cell viability analysis (WST-1), BxPC-3; conditions: Table 4, repeated experiments, drug 10 μM
Procedure, shortened: as §4

cancer cell lines = experiment: Growth inhibitory effects on the panel of cancer cell lines; conditions: drug 10 μM, 72 hours, WST-1
Description: For cell viability analysis, the cardiovascular drugs include peripheral vasodilator reaming enhancer, angiotensin converting agent inhibitor, hypotension and shock therapeutic agent, diuretic, antiarrhythmic agent, antiarralciton drug, antihypertensive agent, anticoagulant thrombolytic agent, cardiac tonic, intravenous (hemorrhoids) therapeutic agent, are used to test the inhibition effect of cancer cell.

[11] = test system: HepG2 (Hepatocellular Carcinoma); experiment: Cell viability analysis (WST-1), HepG2; conditions: Table 4, repeated experiments, drug 10 μM
BCC = experiment: Cell viability analysis (WST-1), BCC; conditions: Table 4, repeated experiments, drug 10 μM
NIH-OVCAR-3 = experiment: Cell viability analysis (WST-1), NIH-OVCAR-3; conditions: Table 4, repeated experiments, drug 10 μM
Description: as §1, §2, §3

[12] = test system: MCF7 (Mammary Gland, Adenocarcinoma); experiment: Cell viability analysis (WST-1), MCF7; conditions: Table 4, repeated experiments, drug 10 μM
SAS = experiment: Cell viability analysis (WST-1), SAS; conditions: Table 4, repeated experiments, drug 10 μM
Procedure, shortened: as §4

U2OS = experiment: Cell viability analysis (WST-1), U2OS; conditions: Table 4, repeated experiments, drug 10 μM
Description: as §1, §2, §3

## CCC[C@H](N[C@@H](C)C(=O)N1[C@H](C(=O)O)C[C@@H]2CCCC[C@@H]21)C(=O)OCC [Perindopril Erbumine (Aceon), Perindopril Erbumine]
[1]; Homo sapiens, MKN-45, 72 h, WST-1, read-out: survival rate (viability) of cancer cells, MKN-45
  viability at 10 µM: 73.8%
[2]; Homo sapiens, A549, 72 h, WST-1, read-out: survival rate (viability) of cancer cells, A549
  viability at 10 µM: 71.9%
[3]; 72 h, WST-1, read-out: survival rate (viability) of cancer cells, PC-3
  viability at 10 µM: 81.1%
MDA-MB231; Homo sapiens, MDA-MB-231, 72 h, read-out: survival rate (viability) of cancer cells, MDA-MB231
  viability at 10 µM: 63.8%
C-33A; Homo sapiens, C-33-A, 72 h, read-out: survival rate (viability) of cancer cells, C-33A
  viability at 10 µM: 90.9%
[4]; Homo sapiens, HCT-116, 72 h, WST-1, read-out: survival rate (viability) of cancer cells, HCT116
  viability at 10 µM: 65%
T24; Homo sapiens, T-24, 72 h, read-out: survival rate (viability) of cancer cells, T24
  viability at 10 µM: 87.9%
[5]; Homo sapiens, NCI-H1650, 72 h, WST-1, read-out: survival rate (viability) of cancer cells, H1650
  viability at 10 µM: 78.6%
[6]; 72 h, WST-1, read-out: survival rate (viability) of cancer cells, TSGH-8301
  viability at 10 µM: 105%
Hep3B; Homo sapiens, Hep3B, 72 h, read-out: survival rate (viability) of cancer cells, Hep3B
  viability at 10 µM: 99.5%
AsPC-1; Homo sapiens, ASPC1, 72 h, read-out: survival rate (viability) of cancer cells, AsPC-1
  viability at 10 µM: 64.2%
[7]; Homo sapiens, A-375, 72 h, WST-1, read-out: survival rate (viability) of cancer cells, A375
  viability at 10 µM: 83.2%
TOV-21G; Homo sapiens, TOV21G, 72 h, read-out: survival rate (viability) of cancer cells, TOV-21G
  viability at 10 µM: 71.2%
786-O; Homo sapiens, 786-0, 72 h, read-out: survival rate (viability) of cancer cells, 786-O
  viability at 10 µM: 86.2%
[8]; Homo sapiens, LoVo, 72 h, WST-1, read-out: survival rate (viability) of cancer cells, LoVo
  viability at 10 µM: 83.5%
[9]; 72 h, WST-1, read-out: survival rate (viability) of cancer cells, AGS
  viability at 10 µM: 87.1%
[10]; Homo sapiens, HeLa, 72 h, WST-1, read-out: survival rate (viability) of cancer cells, HeLa
  viability at 10 µM: 66.7%
BxPC-3; Homo sapiens, BXPC-3, 72 h, read-out: survival rate (viability) of cancer cells, BxPC-3
  viability at 10 µM: 50%
Cancer cell lines
  inhibition effect on different cancer cell lines (in words): significant inhibition effect
[11]; Homo sapiens, HepG2, 72 h, WST-1, read-out: survival rate (viability) of cancer cells, HepG2
  viability at 10 µM: 99.4%
BCC; BCC, 72 h, read-out: survival rate (viability) of cancer cells, BCC
  viability at 10 µM: 58.7%
NIH-OVCAR-3; Homo sapiens, OVCAR-3, 72 h, read-out: survival rate (viability) of cancer cells, NIH-OVCAR-3
  viability at 10 µM: 79.6%
[12]; Homo sapiens, MCF7, 72 h, WST-1, read-out: survival rate (viability) of cancer cells, MCF-7
  viability at 10 µM: 75.6%
SAS; 72 h, read-out: survival rate (viability) of cancer cells, SAS
  viability at 10 µM: 52.5%
U2OS; Homo sapiens, U2OS, 72 h, read-out: survival rate (viability) of cancer cells, U2OS
  viability at 10 µM: 74%

## O=C([O-])C[C@H](O)C[C@H](O)/C=C/c1c(C2CC2)nc2ccccc2c1-c1ccc(F)cc1.O=C([O-])C[C@H](O)C[C@H](O)/C=C/c1c(C2CC2)nc2ccccc2c1-c1ccc(F)cc1.[Ca+2] [Pitavastatin calcium (Livalo), Pitavastatin calcium]
[1]; 72 hours, WST-1
  survival rate (viability) of cancer cells, MKN-45: 61.3
[2]; 72 hours, WST-1
  survival rate (viability) of cancer cells, A549: 89.44
[3]; 72 hours, WST-1
  survival rate (viability) of cancer cells, PC-3: 27.54
MDA-MB231; 72 hours
  survival rate (viability) of cancer cells, MDA-MB231: 39.0358
C-33A; 72 hours
  survival rate (viability) of cancer cells, C-33A: 74.75
[4]; 72 hours, WST-1
  survival rate (viability) of cancer cells, HCT116: 35.07
T24; 72 hours
  survival rate (viability) of cancer cells, T24: 52.63
[5]; 72 hours, WST-1
  survival rate (viability) of cancer cells, H1650: 49.9822
[6]; 72 hours, WST-1
  survival rate (viability) of cancer cells, TSGH-8301: 48.92
Hep3B; 72 hours
  survival rate (viability) of cancer cells, Hep3B: 96.34
AsPC-1; 72 hours
  survival rate (viability) of cancer cells, AsPC-1: 51.36
[7]; 72 hours, WST-1
  survival rate (viability) of cancer cells, A375: 22.09
TOV-21G; 72 hours
  survival rate (viability) of cancer cells, TOV-21G: 21.79
786-O; 72 hours
  survival rate (viability) of cancer cells, 786-O: 16.46
[8]; 72 hours, WST-1
  survival rate (viability) of cancer cells, LoVo: 65.15
[9]; 72 hours, WST-1
  survival rate (viability) of cancer cells, AGS: 19.17
[10]; 72 hours, WST-1
  survival rate (viability) of cancer cells, HeLa: 36.91
BxPC-3; 72 hours
  survival rate (viability) of cancer cells, BxPC-3: 59.78
Cancer cell lines
  inhibition effect on different cancer cell lines (in words): significant inhibition effect
[11]; 72 hours, WST-1
  survival rate (viability) of cancer cells, HepG2: 98.06
BCC; 72 hours
  survival rate (viability) of cancer cells, BCC: 26.77
NIH-OVCAR-3; 72 hours
  survival rate (viability) of cancer cells, NIH-OVCAR-3: 61.41
[12]; 72 hours, WST-1
  survival rate (viability) of cancer cells, MCF-7: 83.57
SAS; 72 hours
  survival rate (viability) of cancer cells, SAS: 38.0374
U2OS; 72 hours
  survival rate (viability) of cancer cells, U2OS: 43.44
